Data from the NIST ThermoML archive (doi:10.1016/j.jct.2010.04.013).
± gives the expanded uncertainty stated by the source.

Assay: mn = molality of the nth substance listed, in mol/kg
Settings: 101 kPa, Liquid; for mass density: Vibrating tube method; for speed of sound: Pulse-echo method

O=S(=O)([O-])C(F)(F)F.O=S(=O)([O-])C(F)(F)F.[Be+2] [beryllium 1,1,1-trifluoromethanesulfonate] + CO
Settings	mass density, 283.15 K [kg/m3]	mass density, 288.15 K [kg/m3]	mass density, 293.15 K [kg/m3]	mass density, 298.15 K [kg/m3]	mass density, 303.15 K [kg/m3]	mass density, 308.15 K [kg/m3]	mass density, 313.15 K [kg/m3]	speed of sound, 298.15 K [m/s]
m1 = 0.05456	809.901 ± 0.22	805.251 ± 0.22	800.58 ± 0.22	795.899 ± 0.23	791.207 ± 0.23	786.489 ± 0.23	781.742 ± 0.23	1105.4 ± 1.2
m1 = 0.06745	812.098 ± 0.22	807.453 ± 0.22	802.786 ± 0.22	798.111 ± 0.22	793.424 ± 0.23	788.711 ± 0.23	783.973 ± 0.23	1106.2 ± 1.2
m1 = 0.08472	815.041 ± 0.22	810.402 ± 0.22	805.745 ± 0.22	801.074 ± 0.22	796.384 ± 0.23	791.686 ± 0.23	786.956 ± 0.23	1107.2 ± 1.2
m1 = 0.1077	818.969 ± 0.22	814.336 ± 0.22	809.691 ± 0.22	805.032 ± 0.22	800.359 ± 0.23	795.664 ± 0.23	790.942 ± 0.23	1108.5 ± 1.2
m1 = 0.1249	821.918 ± 0.22	817.294 ± 0.22	812.65 ± 0.22	807.996 ± 0.22	803.329 ± 0.23	798.644 ± 0.23	793.931 ± 0.23	1109.5 ± 1.2
m1 = 0.1421	824.885 ± 0.22	820.267 ± 0.22	815.629 ± 0.22	810.983 ± 0.22	806.316 ± 0.23	801.638 ± 0.23	796.936 ± 0.23	1110.3 ± 1.2
m1 = 0.1594	827.866 ± 0.22	823.252 ± 0.22	818.621 ± 0.22	813.979 ± 0.23	809.325 ± 0.23	804.652 ± 0.23	799.953 ± 0.23	1111.1 ± 1.2
m1 = 0.177	830.948 ± 0.22	826.34 ± 0.22	821.715 ± 0.23	817.077 ± 0.23	812.425 ± 0.23	807.764 ± 0.23	803.073 ± 0.23	1111.9 ± 1.2

C[S+](C)[O-] [dimethyl sulfoxide] + O=S(=O)([O-])C(F)(F)F.[Na+]
m2 = 0
Settings	mass density [kg/m3]
293.15 K	1100.21 ± 0.18
298.15 K	1095.18 ± 0.18
303.15 K	1090.16 ± 0.18
313.15 K	1080.11 ± 0.22
323.15 K	1090.07 ± 0.44
333.15 K	1080.03 ± 0.68

CO [methanol] + [Ca+2].[O-][Cl+3]([O-])([O-])[O-].[O-][Cl+3]([O-])([O-])[O-]
m2 = 0
Settings	mass density [kg/m3]
283.15 K	800.54 ± 0.23
288.15 K	795.862 ± 0.23
293.15 K	791.168 ± 0.23
298.15 K	786.458 ± 0.23
303.15 K	781.732 ± 0.23
308.15 K	776.98 ± 0.24
313.15 K	772.203 ± 0.24

O=S(=O)([O-])C(F)(F)F.[Na+] [sodium trifluoromethanesulfonate] + CO
Settings	mass density, 283.15 K [kg/m3]	mass density, 288.15 K [kg/m3]	mass density, 293.15 K [kg/m3]	mass density, 298.15 K [kg/m3]	mass density, 303.15 K [kg/m3]	mass density, 308.15 K [kg/m3]	mass density, 313.15 K [kg/m3]	speed of sound, 298.15 K [m/s]
m1 = 0.04581	805.004 ± 0.17	800.315 ± 0.17	795.62 ± 0.17	790.91 ± 0.17	786.191 ± 0.18	781.448 ± 0.18	776.675 ± 0.18	1102.3 ± 1.2
m1 = 0.05858	806.247 ± 0.17	801.557 ± 0.17	796.863 ± 0.17	792.154 ± 0.17	787.428 ± 0.18	782.688 ± 0.18	777.918 ± 0.18	1102.5 ± 1.2
m1 = 0.07409	807.746 ± 0.17	803.057 ± 0.17	798.363 ± 0.17	793.657 ± 0.17	788.931 ± 0.18	784.175 ± 0.18	779.409 ± 0.18	1103 ± 1.2
m1 = 0.08825	809.117 ± 0.17	804.427 ± 0.17	799.733 ± 0.17	795.022 ± 0.17	790.305 ± 0.17	785.561 ± 0.18	780.79 ± 0.18	1103.2 ± 1.2
m1 = 0.1028	810.527 ± 0.17	805.836 ± 0.17	801.14 ± 0.17	796.431 ± 0.17	791.701 ± 0.17	786.964 ± 0.18	782.194 ± 0.18	1103.4 ± 1.2
m1 = 0.1172	811.93 ± 0.17	807.238 ± 0.17	802.543 ± 0.17	797.833 ± 0.17	793.105 ± 0.17	788.352 ± 0.18	783.59 ± 0.18	1103.6 ± 1.2
m1 = 0.1463	814.771 ± 0.17	810.077 ± 0.17	805.377 ± 0.17	800.668 ± 0.17	795.947 ± 0.17	791.201 ± 0.18	786.428 ± 0.18	1104 ± 1.2
m1 = 0.1743	817.509 ± 0.17	812.812 ± 0.17	808.112 ± 0.17	803.401 ± 0.17	798.671 ± 0.17	793.913 ± 0.18	789.143 ± 0.18	1104.6 ± 1.2
m1 = 0.2027	820.305 ± 0.17	815.606 ± 0.17	810.904 ± 0.17	806.19 ± 0.17	801.46 ± 0.17	796.713 ± 0.18	791.938 ± 0.18	1105 ± 1.2
m1 = 0.2301	823.038 ± 0.17	818.338 ± 0.17	813.634 ± 0.17	808.917 ± 0.17	804.185 ± 0.17	799.436 ± 0.17	794.66 ± 0.18	1105.2 ± 1.2
m1 = 0.2574	825.732 ± 0.17	821.028 ± 0.17	816.321 ± 0.17	811.601 ± 0.17	806.867 ± 0.17	802.106 ± 0.17	797.321 ± 0.18	1105.4 ± 1.2
m1 = 0.2861	828.58 ± 0.17	823.872 ± 0.17	819.161 ± 0.17	814.439 ± 0.17	809.7 ± 0.17	804.938 ± 0.17	800.15 ± 0.18	1105.6 ± 1.2
